Laboratory results from patent US20120029068A1, “TRANSDERMAL FLUID” (MALAYSIAN PALM OIL BROARD A/K/A MPOB, priority 2007, published 2012).
Like-named read-outs stand apart in the source and are kept apart here.

What was measured:
[1] = system: human breast cancer cells; conditions: cited from earlier work; for anti-proliferative and pro-apoptotic effects / inhibition of breast cancer cell growth: human breast cancer cells
[2] = rats fed 50 mg of α-T3 or α-T, α-T3 vs α-T; cited from earlier work
[3] = system: MCF-7; conditions: absence and presence of estradiol and tamoxifen; cited from earlier work
[4] = system: ZR-75-1 cells; conditions: absence and presence of estradiol and tamoxifen; cited from earlier work
[5] = system: MCF-7 cells; conditions: α-T combined with tamoxifen; cited from earlier work
[6] = system: MDA-MB-231 cells; conditions: cited from earlier work
[7] = system: prostate cancer cell; conditions: comparison between homologues; cited from earlier work
[8] = system: Splenocytes; assay: MTT viability assay of splenocytes; format: cell-based, BALB/c mice; conditions: splenocytes of treated mice, addition of concanavalin A or OVA
Method: Viability of the cells was measured by the MTT assay. In this assay MTT is converted to a blue formazan product by dehydrogenases that are active in living cells. Splenocytes were seeded with concanavalin A or OVA in a 96 well plate in a total volume of 200 μl of medium. MTT (25 μl of 5 mg/ml) was added to each well. After 4 hours, 100 μl of extraction buffer consisting of 20% SDS dissolved in a 50% dimethyl formamide/50% water solution at pH 4.0 was added. The blue colour formed was measured at 590 nm.
The MTT assay uses the principle whereby cell growth or cell death is indicated by the conversion or lack of conversion of the tetrazolium salt to the coloured product, formazan, the concentration of which can be measured spectrophotometrically.

[9] = system: natural killer cells (NK); assay: Single colour flow cytometry with leukocyte marker antibodies, NK cells; format: in vivo, BALB/c mice; conditions: whole blood, δ-tocotrienol group compared to control
Method: (§1) The mice were further immunized subcutaneously with ovalbumin (50 μg) adjuvanted in alum. Interferon-gamma (IFN-γ) was measured upon antigen specific stimulation of OVA.
(§2) Fluorescein isothiocyanate (FITC) or Phycoerythrin-labeled antibodies were diluted by adding 20 μl of antibody to 50 μl of Staining Buffer in separate tubes. 100 μl of whole blood from mouse was added to each tube and mixed gently. The samples were then incubated for one hour at room temperature in the dark. After incubation, 2 ml of RBC Lysis Buffer was added into each tube and mixed gently. Samples were then centrifuged at 400 g for 5 minutes at room temperature. A wash step was carried out by adding 2 ml of Staining Buffer and samples were again centrifuged at 400 g for 5 minutes at room temperature. Supernatant was removed and 200 μl Staining Buffer was added into each tube followed by 204 μl of 4% Formalin. Samples were analysed using Flow Cytometer.

[10] = system: B-lymphocytes; assay: Single colour flow cytometry with leukocyte marker antibodies, B-lymphocytes; format: in vivo, BALB/c mice; conditions: whole blood, δ-tocotrienol group compared to control
Method: as §1, §2

[11] = mouse, in vivo
Method: BALB/c mice were divided into 2 groups. Control group only received ethanol the carrier whilst the experimental group was treated with 1 mg of δ-tocotrienols daily for 4 weeks. It was applied on the back to examine subcutaneous absorption.
Female BALB/c mice 3 to 4 weeks old were obtained from the Animal Breeding Unit, Institute for Medical Research (IMR), Kuala Lumpur, Malaysia. […] The control animals were treated with ethanol alone whilst the experimental groups were applied daily with 0.5 ml of a 20 mg/ml concentration to deliver 1 mg of δ-tocotrienol.
The tocopherols and tocotrienols were analysed by HPLC. The system used was a Shimadzu LC-10AT HPLC coupled with a Shimadzu Model RF-10AXL fluorescence spectrophotometer, Shimadzu Class VP data acquisition software, and silica column (YMC A-012/150×6 mm I.D, 5 μm). The eluting solvent was hexane/isopropyl alcohol (99.5/0.5 v/v) at a flow rate of 2.0 ml/min. The detector was set at excitation wavelength of 295 nm and emission wavelength of 325 nm. 500 mg adipose tissue was homogenized with 4:1:1 mixture of hexane:ethanol and 0.9% sodium chloride at 10000 rpm for 5 minutes. The homogenate was then centrifuged at 2000 rpm for 5 minutes. The resulting supernatant was filtered and evaporated using a rotary evaporator. A known amount of lipid sample was dissolved in a 10 ml volumetric flask using the eluting solvent and 10 μl of the solution was injected into the HPLC system. A standard solution of a mixture of α, γ, and δ-tocotrienols was also injected accordingly. Quantification of the major components of vitamin E was carried out by comparing the peak areas of the components with those of the standards.

[12] = system: IFN-γ; assay: IFN-γ ELISA on splenocytes of mice immunized with OVA; format: in vivo, BALB/c mice; conditions: transdermal δ-T3 vs control
Method: as §1
The experimental mice were sacrificed using ether. Spleen was removed aseptically into RPMI complete medium and single cell suspension was made by teasing out the splenocytes from the spleen capsule. Before culture, cells were stained with 0.4% Trypan Blue Stain (GIBCO, Invitrogen Corp, New Zealand) and cell viability count was performed using a haemocytometer. The spleen cell suspension was diluted to give a 5×10^6 cells/ml solution and Concanavalin A (Sigma-Aldrich Inc, St Louis Mo., USA) was added at a final concentration of 25 μg/ml. 200 μl of this suspension was plated on to 96-well flat-bottomed tissue culture plates (Becton Dickinson, USA) and left in a humidified CO2 incubator at 37° C. for 72 hours. At the end of each incubation period, the plate was removed from the incubator and stored at −70° C. The plates were thawed prior to performing ELISA.
The tissue culture plates that were frozen at […] were thawed. […] The supernatant was analysed by ELISA to quantify the amount of IFN-γ and IL-4 produced following the in vitro stimulation with Concanavalin A. ELISA was performed using ELISA kits for mouse IFN-γ and IL-4 (BD, Pharmingen) as recommended by the manufacturers.

SMILES: CC(C)=CCC/C(C)=C/CC/C(C)=C/CC[C@]1(C)CCc2c(C)c(O)c(C)c(C)c2O1 [α-T3, α-tocotrienol]
- anti-proliferative and pro-apoptotic effects / inhibition of breast cancer cell growth [1]: potent anti-proliferative and pro-apoptotic effects
- concentration in adipose tissue and skin [2]: significantly higher
- proliferation of MCF-7 [3]: inhibited proliferation
- proliferation of ZR-75-1 cells [4]: inhibited proliferation

SMILES: Cc1c(C)c2c(c(C)c1O)CC[C@@](C)(CCC[C@H](C)CCC[C@H](C)CCCC(C)C)O2 [α-T, α-tocopherol]
- anti-proliferative and pro-apoptotic effects / inhibition of breast cancer cell growth [1]: no effect
- increase of the IC50 for tamoxifen [5]: more than 1000 fold
- effect on growth inhibitory effects of tamoxifen [6]: completely blocked

SMILES: CC(C)=CCC/C(C)=C/CC/C(C)=C/CC[C@]1(C)CCc2cc(O)c(C)c(C)c2O1 [γ-T3, γ-tocotrienol]
- anti-proliferative and pro-apoptotic effects / inhibition of breast cancer cell growth [1]: potent anti-proliferative and pro-apoptotic effects
- effect on prostate cancer cell growth [7]: greater anti-proliferative effects than γ-T
- proliferation of MCF-7 [3]: inhibited proliferation
- proliferation of ZR-75-1 cells [4]: inhibited proliferation

SMILES: Cc1c(O)cc2c(c1C)O[C@](C)(CCC[C@H](C)CCC[C@H](C)CCCC(C)C)CC2 [γ-T, γ-tocopherol, reference compound]
- effect on prostate cancer cell growth [7]: much stronger inhibitory effect

SMILES: CC(C)=CCC/C(C)=C/CC/C(C)=C/CC[C@]1(C)CCc2cc(O)cc(C)c2O1 [δ-T3, δ-tocotrienol]
- splenocyte growth (MTT OD reading) [8]: grew normally
- natural killer cells [9]: significantly increased
- natural killer cells ([9]; listed as δ-tocotrienols): increase
- B-lymphocytes [10]: significantly increased
- B-lymphocytes ([10]; listed as δ-tocotrienols): increase
- synergistic efficacy with Tamoxifen ([1]; breast cancer): highest synergistic efficacy
- anti-proliferative and pro-apoptotic effects / inhibition of breast cancer cell growth [1]: potent anti-proliferative and pro-apoptotic effects
- anti-proliferative and pro-apoptotic effects / inhibition of breast cancer cell growth ([1]; listed as δ-tocotrienol): most effective inhibitor
- changes in tocotrienol levels in blood, spleen and liver [11]: only seen at week 4
- concentration in adipose and subcutaneous fat tissue at week 3 [11]: drop in concentration
- time of optimum concentration in breast and abdominal adipose and subcutaneous fat tissue [11]: 2 week
- δ-T3 in breast and abdominal adipose and subcutaneous fat tissue [11]: significant increases
- proliferation of MCF-7 [3]: inhibited proliferation
- proliferation of ZR-75-1 cells [4]: inhibited proliferation
- IFN-γ in splenocytes [12]: significantly higher
- IFN-γ in splenocytes ([12]; listed as δ-tocotrienols): significant increase
